Measurements reported in US6900891B2, “Optical sensors for the detection of nitric oxide” (The Regents of the University of Michigan, priority 1999, dated 2005).

Test system: macrophages derived from BALB/c mice
Assay: Extracellular nitric oxide released by macrophages, measured with fiber sensors
Type: cell-based
Conditions: FIG. 19; macrophages treated with LPS and INF-γ and inhibited with 1 mM inhibitor
Procedure: Specifically, said sensors were placed in solution, approximately 0.5 cm from the macrophages.
In one embodiment, the above referenced sensors were used to quantify nitric oxide production by macrophages derived from BALB/c mice. […] Some macrophages were activated by overnight incubation with medium containing 100 U/mL IFN-γ enzyme Corp., Cambridge, Mass.) and 100 ng/mL LPS (List Biological Labs, Inc., Campbell, Calif.). In addition, to activation with IFN-γ and LPS, some cells were also treated with NMMA, (Sigma) to inhibit the production of nitric oxide. Prior to nitric oxide determinations, the macrophages were removed from incubation. For inactivated macrophages, the medium was exchanged for 2 mL Ringer's buffer. […] During measurements, the cells were kept at ambient temperature (25° C.) and 7.5 mg/mL propidium iodide was used to ascertain the degree of cell viability.
In another embodiment, macrophages were derived from the tibia and femur bone marrow of Harlan Sprague-Dawley BALB/c mice were cultured and plated by methods similar to previously published methods. For extracellular measurements with fiber sensors the cells where plated at a density of 2×10^5 on 25 mm coverslips, while those to be used for scrape-loading were plated onto 35 mm petri dishes (Nunc) at a density of 2×10^6. […]

## CNC(=N)NCCC[C@H](N)C(=O)O [Nω-monomethyl-L-arginine, N^ω-monomethyl-L-arginine]
  [NO]: 20 µM
